In publication PMC10281575, “PfCRT mutations conferring piperaquine resistance in falciparum malaria shape the kinetics of quinoline drug binding and transport” (PLOS Pathogens, 2023):
Values joined by “and” are separate entries in the source; they are usually repeats but may differ in a detail not shown here. Equal entries are not always repeated.

Biological target: T1, PfCRT^Dd2 (Plasmodium falciparum, UniProt Q8IBZ9, A220S/I356T/K76T/M74I/N326S/N75E/Q271E/R371I)
T1 sequence (Q8IBZ9 1-424 M74I/N75E/K76T/A220S/Q271E/N326S/I356T/R371I): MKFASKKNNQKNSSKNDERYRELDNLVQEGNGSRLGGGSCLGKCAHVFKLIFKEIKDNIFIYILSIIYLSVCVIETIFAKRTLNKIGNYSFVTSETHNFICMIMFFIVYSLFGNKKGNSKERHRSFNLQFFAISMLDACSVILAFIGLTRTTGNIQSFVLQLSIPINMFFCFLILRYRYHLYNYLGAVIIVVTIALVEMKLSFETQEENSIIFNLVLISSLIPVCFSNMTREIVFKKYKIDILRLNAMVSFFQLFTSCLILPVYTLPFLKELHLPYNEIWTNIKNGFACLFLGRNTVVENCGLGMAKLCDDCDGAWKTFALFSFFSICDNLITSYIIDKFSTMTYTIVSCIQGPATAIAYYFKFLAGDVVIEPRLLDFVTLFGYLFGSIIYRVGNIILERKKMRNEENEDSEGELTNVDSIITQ
Experiment: Competition kinetics of drug transport (radiolabeled substrate plus cold inhibitor), PfCRT^Dd2-expressing oocytes
Type: cell-based
Set-up: expressed in transfected cells; host or cells: Xenopus laevis oocytes injected with in vitro transcribed RNA (pSP64T)
Conditions: single replicates
Method: The experimental procedure and the data analysis were as described above.
The difference between the two models lies in the value of α, a parameter describing how much the affinity for the substrate changes when the inhibitor is already bound, and vice versa. […] The resulting Vmax,app values and the Vmax,app/KM,app ratios were plotted as a function of the inhibitor concentration (Fig 5A).
Drug transport assays were performed as previously described. Briefly, measurements of radiolabeled drug uptake were made over 1 h, unless otherwise specified. […] Where specified, one or more unlabeled drugs were also present at the indicated concentrations. […] The uptake assays were terminated by removing the oocytes from the reaction medium and washing them three times with 2 mL of ice-cold ND96 buffer. Each oocyte was transferred to a separate scintillation vial and lysed by the addition of 200 μL of a 5% SDS solution. The radioactivity in the sample was measured using a liquid scintillation analyser Tri-Carb 4910 TR (PerkinElmer). Water-injected oocytes were analyzed in parallel as a negative control. The buffer from each condition was measured in duplicate in parallel to each experiment to transform counts per minute into pmol of drug. Drug uptake attributable to PfCRT was determined by subtracting the background uptake from water-injected oocytes from that of PfCRT-expressing oocytes. In all cases, at least three independent experiments were performed on oocytes from different frogs, and for each condition in an experiment, measurements were made from 10 oocytes per treatment.
The following equations were adopted from Segel (1993), and the reader is referred to that text for the assumptions made in the author’s approach in the derivation of each equation [31]. The concentration of substrate is denoted as [S1] and the concentration of the inhibiting substrate is denoted as [S2]. KS1 and KS2 are the dissociation constants for the respective substrate-protein complexes.
Analyses of the kinetic data were performed using SigmaPlot version 13.0 and Python. The drug competition models were globally fit to the kinetic data using the least-squares method and ranked according to their corrected Akaike information criterion difference (ΔAICC) and their Akaike weight, using Python. The two top-ranked models were compared using an F-test.
This factor reflects how much the affinity of the transporter for one drug changes when the other drug is already bound in the protein cavity. In the former model, α > 0 and α ≠ 1. In the latter model, it could be thought of as if α = 1. Because of this, discriminating between the two models also means determining the value of α. In Mixed-type (Partial) inhibition, the apparent maximal velocity (Vmax,app) is given by Eq 22, Vmax,app=Vmax(1+β[S2]/αKS2)/(1+[S2]/αKS2) (Eq 22)
Vmax,app is the maximal rate of substrate transport at a certain inhibitor concentration. The half-maximal inhibitory concentration is given by the term in the denominator different from [S2], which in this case is αKS2. This means that by plotting Vmax,app as a function of [S2], the value of αKS2 can be derived after fitting the curve to Eq 23.
The half-maximal inhibitory concentration derived from this hyperbolic equation is equal to KS2. By plotting Vmax,app/KM,app as a function of [S2], one can derive KS2 after fitting the curve to Eq 25. The value of α can then be calculated dividing αKS2 by KS2.

Clc1ccc2c(N3CCN(CCCN4CCN(c5ccnc6cc(Cl)ccc56)CC4)CC3)ccnc2c1 [PPQ, piperaquine]
PfCRTDd2-mediated PPQ transport 10 µM PPQ (0 µM CQ): 7.56 pmol oocyte-1 h-1 and 10.37 pmol oocyte-1 h-1 and 9.52 pmol oocyte-1 h-1 | PfCRTDd2-mediated PPQ transport 10 µM PPQ (25 µM CQ): 5.90 pmol oocyte-1 h-1 and 7.56 pmol oocyte-1 h-1 and 12.12 pmol oocyte-1 h-1 | PfCRTDd2-mediated PPQ transport 10 µM PPQ (50 µM CQ): 9.48 pmol oocyte-1 h-1 and 7.04 pmol oocyte-1 h-1 and 8.33 pmol oocyte-1 h-1 | PfCRTDd2-mediated PPQ transport 10 µM PPQ (125 µM CQ): 5.75 pmol oocyte-1 h-1 and 8.54 pmol oocyte-1 h-1 and 9.92 pmol oocyte-1 h-1 | PfCRTDd2-mediated PPQ transport 10 µM PPQ (200 µM CQ): 6.96 pmol oocyte-1 h-1 and 8.23 pmol oocyte-1 h-1 and 6.73 pmol oocyte-1 h-1 | PfCRTDd2-mediated PPQ transport 10 µM PPQ (400 µM CQ): 6.34 pmol oocyte-1 h-1 and 7.80 pmol oocyte-1 h-1 and 6.93 pmol oocyte-1 h-1 | PfCRTDd2-mediated PPQ transport 50 µM PPQ (0 µM CQ): 28.14 pmol oocyte-1 h-1 and 21.87 pmol oocyte-1 h-1 and 89.78 pmol oocyte-1 h-1 and 46.28 pmol oocyte-1 h-1 and 30.01 pmol oocyte-1 h-1 and 33.33 pmol oocyte-1 h-1 | PfCRTDd2-mediated PPQ transport 50 µM PPQ (25 µM CQ): 38.92 pmol oocyte-1 h-1 and 37.28 pmol oocyte-1 h-1 and 39.83 pmol oocyte-1 h-1 | PfCRTDd2-mediated PPQ transport 50 µM PPQ (50 µM CQ): 39.65 pmol oocyte-1 h-1 and 31.99 pmol oocyte-1 h-1 and 26.06 pmol oocyte-1 h-1 | PfCRTDd2-mediated PPQ transport 50 µM PPQ (125 µM CQ): 26.33 pmol oocyte-1 h-1 and 27.41 pmol oocyte-1 h-1 and 34.41 pmol oocyte-1 h-1 | PfCRTDd2-mediated PPQ transport 50 µM PPQ (200 µM CQ): 26.27 pmol oocyte-1 h-1 and 27.81 pmol oocyte-1 h-1 and 32.81 pmol oocyte-1 h-1 | PfCRTDd2-mediated PPQ transport 50 µM PPQ (400 µM CQ): 19.16 pmol oocyte-1 h-1 and 25.87 pmol oocyte-1 h-1 and 24.41 pmol oocyte-1 h-1 | PfCRTDd2-mediated PPQ transport 100 µM PPQ (0 µM CQ): 59.97 pmol oocyte-1 h-1 and 33.72 pmol oocyte-1 h-1 and 64.52 pmol oocyte-1 h-1 | PfCRTDd2-mediated PPQ transport 100 µM PPQ (25 µM CQ): 49.79 pmol oocyte-1 h-1 and 57.28 pmol oocyte-1 h-1 and 48.06 pmol oocyte-1 h-1 | PfCRTDd2-mediated PPQ transport 100 µM PPQ (50 µM CQ): 52.12 pmol oocyte-1 h-1 and 55.31 pmol oocyte-1 h-1 and 42.70 pmol oocyte-1 h-1 | PfCRTDd2-mediated PPQ transport 100 µM PPQ (125 µM CQ): 58.54 pmol oocyte-1 h-1 and 43.73 pmol oocyte-1 h-1 and 42.26 pmol oocyte-1 h-1 | PfCRTDd2-mediated PPQ transport 100 µM PPQ (200 µM CQ): 53.47 pmol oocyte-1 h-1 and 42.58 pmol oocyte-1 h-1 and 43.06 pmol oocyte-1 h-1 | PfCRTDd2-mediated PPQ transport 100 µM PPQ (400 µM CQ): 44.21 pmol oocyte-1 h-1 and 36.58 pmol oocyte-1 h-1 and 41.48 pmol oocyte-1 h-1 | PfCRTDd2-mediated PPQ transport 200 µM PPQ (0 µM CQ): 87.13 pmol oocyte-1 h-1 and 109.05 pmol oocyte-1 h-1 and 57.84 pmol oocyte-1 h-1 | PfCRTDd2-mediated PPQ transport 200 µM PPQ (25 µM CQ): 75.61 pmol oocyte-1 h-1 and 76.21 pmol oocyte-1 h-1 and 79.18 pmol oocyte-1 h-1 | PfCRTDd2-mediated PPQ transport 200 µM PPQ (50 µM CQ): 78.47 pmol oocyte-1 h-1 and 73.08 pmol oocyte-1 h-1 and 76.77 pmol oocyte-1 h-1 | PfCRTDd2-mediated PPQ transport 200 µM PPQ (125 µM CQ): 74.89 pmol oocyte-1 h-1 and 84.24 pmol oocyte-1 h-1 and 63.70 pmol oocyte-1 h-1 | PfCRTDd2-mediated PPQ transport 200 µM PPQ (200 µM CQ): 63.70 pmol oocyte-1 h-1 and 74.56 pmol oocyte-1 h-1 and 71.51 pmol oocyte-1 h-1 | PfCRTDd2-mediated PPQ transport 200 µM PPQ (400 µM CQ): 58.65 pmol oocyte-1 h-1 and 62.98 pmol oocyte-1 h-1 and 61.98 pmol oocyte-1 h-1 | PfCRTDd2-mediated PPQ transport 300 µM PPQ (0 µM CQ): 90.42 pmol oocyte-1 h-1 and 110.91 pmol oocyte-1 h-1 and 77.44 pmol oocyte-1 h-1 | PfCRTDd2-mediated PPQ transport 300 µM PPQ (25 µM CQ): 75.46 pmol oocyte-1 h-1 and 93.24 pmol oocyte-1 h-1 and 86.36 pmol oocyte-1 h-1 | PfCRTDd2-mediated PPQ transport 300 µM PPQ (50 µM CQ): 67.98 pmol oocyte-1 h-1 and 93.33 pmol oocyte-1 h-1 and 91.69 pmol oocyte-1 h-1 | PfCRTDd2-mediated PPQ transport 300 µM PPQ (125 µM CQ): 84.14 pmol oocyte-1 h-1 and 87.90 pmol oocyte-1 h-1 and 73.92 pmol oocyte-1 h-1 | PfCRTDd2-mediated PPQ transport 300 µM PPQ (200 µM CQ): 93.36 pmol oocyte-1 h-1 and 73.07 pmol oocyte-1 h-1 and 56.74 pmol oocyte-1 h-1 and 73.66 pmol oocyte-1 h-1 | PfCRTDd2-mediated PPQ transport 300 µM PPQ (400 µM CQ): 91.78 pmol oocyte-1 h-1 and 67.51 pmol oocyte-1 h-1 and 51.42 pmol oocyte-1 h-1 | PfCRTDd2-mediated PPQ transport 400 µM PPQ (0 µM CQ): 113.37 pmol oocyte-1 h-1 and 109.88 pmol oocyte-1 h-1 and 74.49 pmol oocyte-1 h-1 | PfCRTDd2-mediated PPQ transport 400 µM PPQ (25 µM CQ): 93.45 pmol oocyte-1 h-1 and 86.08 pmol oocyte-1 h-1 and 106.77 pmol oocyte-1 h-1 | PfCRTDd2-mediated PPQ transport 400 µM PPQ (50 µM CQ): 86.04 pmol oocyte-1 h-1 and 73.87 pmol oocyte-1 h-1 and 103.05 pmol oocyte-1 h-1 | PfCRTDd2-mediated PPQ transport 400 µM PPQ (125 µM CQ): 77.98 pmol oocyte-1 h-1 and 81.70 pmol oocyte-1 h-1 and 88.40 pmol oocyte-1 h-1 | PfCRTDd2-mediated PPQ transport 400 µM PPQ (200 µM CQ): 78.64 pmol oocyte-1 h-1 and 88.68 pmol oocyte-1 h-1 and 77.87 pmol oocyte-1 h-1 | PfCRTDd2-mediated PPQ transport 400 µM PPQ (400 µM CQ): 83.22 pmol oocyte-1 h-1 and 67.13 pmol oocyte-1 h-1 and 69.51 pmol oocyte-1 h-1 | PfCRTDd2-mediated PPQ transport 500 µM PPQ (0 µM CQ): 118.94 pmol oocyte-1 h-1 and 82.44 pmol oocyte-1 h-1 and 112.35 pmol oocyte-1 h-1 | PfCRTDd2-mediated PPQ transport 500 µM PPQ (25 µM CQ): 95.67 pmol oocyte-1 h-1 and 107.56 pmol oocyte-1 h-1 and 100.57 pmol oocyte-1 h-1
